Reference: PMC6318801 (European journal of medicinal chemistry, 2018)
Structures can show the parent of a compound that is named as a salt. Where two headings read alike, the source gives them in different places.

Legend:
[1] = Impact of human serum protein binding on inhibitory activity; type: cell-based; conditions: Figure S4
[2] = biological target: T1, mouse IDO2 expressed exogenously in T-Rex cells (Mus musculus, UniProt Q8R0V5); test: Cell-based IDO2 inhibition assay; conditions: for Greater potency for IDO1 and TDO over IDO2 (cell-based): cell-based IC50 ratio
T1 sequence (Q8R0V5 1-405): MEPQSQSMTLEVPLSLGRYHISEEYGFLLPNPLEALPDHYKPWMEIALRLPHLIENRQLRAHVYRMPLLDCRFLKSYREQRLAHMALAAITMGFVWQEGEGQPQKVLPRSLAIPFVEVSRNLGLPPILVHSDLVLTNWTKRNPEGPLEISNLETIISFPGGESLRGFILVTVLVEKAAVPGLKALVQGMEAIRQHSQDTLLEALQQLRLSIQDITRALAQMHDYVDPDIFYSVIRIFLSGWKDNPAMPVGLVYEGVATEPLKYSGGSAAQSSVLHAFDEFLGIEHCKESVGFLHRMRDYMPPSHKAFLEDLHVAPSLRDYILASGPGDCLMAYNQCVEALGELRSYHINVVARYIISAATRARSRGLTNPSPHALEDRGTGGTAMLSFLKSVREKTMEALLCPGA

[3] = biological target: IDO1 (Homo sapiens, UniProt P14902); test: Enzyme-based IDO1 inhibition assay; conditions: for IDO1 % inhibition: isolated enzyme, 100 μM inhibitor
IDO1, sequence (P14902 whole entry, species assumed): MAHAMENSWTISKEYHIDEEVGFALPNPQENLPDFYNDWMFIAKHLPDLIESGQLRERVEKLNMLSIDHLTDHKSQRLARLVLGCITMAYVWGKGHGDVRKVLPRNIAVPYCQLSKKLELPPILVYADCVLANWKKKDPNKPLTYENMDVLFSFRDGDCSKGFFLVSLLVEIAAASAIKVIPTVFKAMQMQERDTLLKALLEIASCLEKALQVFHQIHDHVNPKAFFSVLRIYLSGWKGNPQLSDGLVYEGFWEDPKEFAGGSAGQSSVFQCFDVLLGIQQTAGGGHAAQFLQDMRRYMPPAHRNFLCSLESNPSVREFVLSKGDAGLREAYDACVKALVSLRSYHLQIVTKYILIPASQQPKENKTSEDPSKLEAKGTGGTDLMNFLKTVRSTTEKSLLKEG

[4] = biological target: IDO2 (Homo sapiens, UniProt Q6ZQW0); test: Enzyme-based IDO2 inhibition assay
IDO2, sequence (Q6ZQW0 whole entry): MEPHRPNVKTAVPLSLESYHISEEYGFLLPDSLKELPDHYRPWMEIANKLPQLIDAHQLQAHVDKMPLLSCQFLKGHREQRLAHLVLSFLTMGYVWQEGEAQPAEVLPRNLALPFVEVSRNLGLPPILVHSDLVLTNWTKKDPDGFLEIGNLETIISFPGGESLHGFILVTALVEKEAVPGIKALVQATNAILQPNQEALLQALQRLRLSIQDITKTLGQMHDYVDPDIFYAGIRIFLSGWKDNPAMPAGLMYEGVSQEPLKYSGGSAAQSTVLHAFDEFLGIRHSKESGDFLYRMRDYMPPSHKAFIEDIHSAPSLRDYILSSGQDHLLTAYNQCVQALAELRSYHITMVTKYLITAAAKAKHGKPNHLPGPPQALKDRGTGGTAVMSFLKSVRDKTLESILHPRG

[5] = biological target: human IDO1 expressed endogenously in HeLa cells (Homo sapiens, UniProt P14902); test: Cell-based IDO1 inhibition assay
human IDO1 expressed endogenously in HeLa cells, sequence (P14902 whole entry): as the sequence (P14902 whole entry, species assumed) above

[6] = biological target: human TDO expressed exogenously in T-Rex cells (Homo sapiens, UniProt P48775); test: Cell-based TDO inhibition assay
human TDO expressed exogenously in T-Rex cells, sequence (P48775 whole entry): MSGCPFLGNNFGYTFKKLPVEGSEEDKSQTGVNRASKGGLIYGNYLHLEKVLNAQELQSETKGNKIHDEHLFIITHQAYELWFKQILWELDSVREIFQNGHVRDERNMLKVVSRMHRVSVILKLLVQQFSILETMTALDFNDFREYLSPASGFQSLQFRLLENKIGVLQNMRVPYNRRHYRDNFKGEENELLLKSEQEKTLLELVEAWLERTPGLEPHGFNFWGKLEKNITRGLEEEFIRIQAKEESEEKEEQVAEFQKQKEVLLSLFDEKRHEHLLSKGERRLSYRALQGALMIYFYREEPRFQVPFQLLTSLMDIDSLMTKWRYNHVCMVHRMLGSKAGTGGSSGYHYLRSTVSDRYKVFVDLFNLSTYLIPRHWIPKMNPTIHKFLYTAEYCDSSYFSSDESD

[7] = biological target: TDO (Homo sapiens, UniProt P48775); test: Enzyme-based TDO inhibition assay
TDO, sequence (P48775 whole entry, species assumed): as the sequence (P48775 whole entry) above

[8] = isolated enzyme, 100 μM inhibitor
[9] = read-out: IDO2 IC50 (cell-based), mouse IDO2 in T-Rex cells, racemic mixtures
[10] = read-out: IDO1 IC50 (cell-based), HeLa cells, racemic mixtures
[11] = read-out: TDO IC50 (cell-based), human TDO in T-Rex cells, racemic mixtures

In the case of `Cl.NOC(c1ccccc1)c1ccc(Cl)cc1Cl` (centres unmarked) [Compound 6, O-(2,4-Dichlorophenylbenzyl)hydroxylamine hydrochloride], the “Effect of human serum protein binding on inhibitory activity” value [1] is reported as “substantial reduction in inhibitory activity”.
With `Cl.NOC(c1ccccc1)c1ccccc1F` (stereo not drawn) [Compound 16, O-(2-Fluoro-α-phenylbenzyl)hydroxylamine hydrochloride] the “Greater potency for IDO1 and TDO over IDO2 (cell-based)” value [2] was “roughly 10 fold”.
In the case of `NOC(c1ccccc1)c1ccc(O)cc1` (stereo not drawn) [Compound 25, O-(4-Hydroxy-α-phenyl)-benzyl hydroxylamine hydrochloride], the inhibition at 200 µM ([3]; read-out: IDO1 % inhibition, isolated enzyme, 200 μM inhibitor) is reported as 18%.
Compound “O-(2-Methoxy-α-phenylbenzyl)hydroxylamine hydrochloride [Compound 20]” has an IDO2 % inhibition [4, 8] of 80.0%, an IC50 [2, 9] of 16.5 µM and an IC50 [5, 10] of 1.11 µM. For the same compound, the IC50 [6, 11] was 48.8 µM.
In the case of `Cl.NOC(CCCC(=O)Nc1ccccc1)c1cccc(Cl)c1` (centres unmarked) [Compound 5, 5-(Aminooxy)-5-(3-chlorophenyl)-N-phenylpentanamide hydrochlorie], the “Selectivity for IDO1 over IDO2 and TDO (cell-based)” value ([5]; cell-based IC50 ratio) is reported as “more than 20 fold”.
In the case of `Cl.NOC(c1ccccc1)c1cc(Cl)cc(Cl)c1` (stereo not drawn) [Compound 2, O-(3,5-Dichloro-α-phenylbenzyl)hydroxylamine hydrochloride], the “Effect of human serum protein binding on inhibitory activity” value [1] is reported as “relatively unaffected”.
With `Cl.NOC(c1ccccc1)c1ccsc1` (centres unmarked) [Compound 21, O-(phenyl(thiophen-3-yl)methyl)hydroxylamine hydrochloride] the “Greater potency for IDO1 and TDO over IDO2 (cell-based)” value [2] was “roughly 10 fold”.
Compound “O-[4-Chloro-α-(2’-methyl,4’-methoxyphenyl)benzenemethyl]hydroxylamine hydrochloride [Compound 23]” has a TDO % inhibition [7, 8] of 66%, an IC50 [2, 9] of 8.77 µM and an IC50 [5, 10] of 1.76 µM. For the same compound, the IC50 [6, 11] was 19.1 µM and the IDO1 % inhibition [3] was 85%.
Compound “O-(3-Trifluoromethyl-α-phenylbenzyl)hydroxylamine hydrochloride [Compound 26]” has an IC50 ([7]; read-out: TDO IC50, isolated enzyme, racemic mixtures) of 12 µM, an IC50 [2, 9] of 24.7 µM and an IC50 [5, 10] of 1.73 µM. For the same compound, the IC50 [6, 11] was 13.6 µM and the IDO1 % inhibition [3] was 18%.
For `NOC(CCc1ccccc1)c1ccccc1` (centres unmarked) [Compound 17, O-(1,3-diphenylpropyl)hydroxylamine hydrochloride], the inhibition at 100 µM ([4]; read-out: IDO2 % inhibition) was 76%, the inhibition at 100 µM ([7]; read-out: TDO % inhibition) was 89.9% and the IC50 [2] was 19.3 µM. It also gave an IC50 [5] of 14.7 µM, an IC50 [6] of 49.7 µM and an IC50 [3] of 16 µM.
